One experiment concerns 35S-ABF transgenic lines. As to the kind of experiment: Glucose response of seedlings. Format: in vivo, Arabidopsis thaliana. Particulars: 3% mannitol; both wild type and 35S-ABF transgenic plants. As for the experimental part:
(§1) FIG. 3. […] (A) Salt effect on germination. Seeds of Ler, aba1-1, abi1-1, abi2-1, 35S-ABF3 (line A319) and 35S-ABF4 (line A405) were plated after 4 days of cold treatment on media containing 50, 100, or 150 mM NaCl, and germination (fully open cotyledons) was scored after 4 days. Experiments were done in triplicates (n=50 each), and standard errors are smaller than the symbols. (B) Salt effect on newly germinated seedling growth. Seeds of the same transgenic lines were germinated for 4 days on media containing 100 mM of NaCl, KCl or mannitol, and representative seedlings are shown. (C) Glucose response of 35S-ABF transgenic plants. Seeds were germinated and grown for 14 days on the regular growth medium or the same medium supplemented with 3% glucose or mannitol at vertical position. A319, A333, A405, and A406 indicate transgenic lines.
Plants were grown at 22° C. under long day condition (16 hr light/8 hr dark cycle) aseptically or on soil. For soil growth, seeds were sown on 1:1:1 mixture of vermiculite, perlite and peat moss irrigated with 0.1% Hyponex, placed at 4° C. for 4 days in the dark to break residual dormancy, and transferred to normal growth conditions. Unless otherwise stated, the plants were watered once a week. […]

Experiment [1] concerns 35S-ABF plants. The experiment in a line: Salt effect on germination and newly germinated seedling growth. The experiment is classed as in vivo, Arabidopsis thaliana. The protocol:
as §1
(§2) High concentrations of salts inhibit the germination of Arabidopsis (Werner and Finkelstein, 1995; Leon-Kloosterziel et al., 1996; Quesada et al., 2000; Zhu, 2000). […] To test this, 35S-ABF transgenic plants were germinated on media containing various concentrations of NaCl.
(§3) Plants were grown at 22° C. under long day condition (16 hr light/8 hr dark cycle) aseptically or on soil. […]

Experiment [2] concerns 35S-ABF and wild type plants. As to the kind of experiment: Effect of ACC and IAA on growth of 35S-ABF versus wild type plants. Particulars: in vivo. Set-up: species or system Arabidopsis thaliana. The text has this: According to the studies, ABA-mediated inhibition of germination is negatively regulated by ethylene, whereas ethylene signaling components are required for the ABA inhibition of root growth (Beaudoin et al., 2000; Ghassemian et al., 2000). […] When exposed to progressive drought, new lateral roots take a short and tuberized form. The process, known as ‘drought rhizogenesis’, is impaired not only in the ABA deficient aba-1 and ABA-insensitive abi1-1 mutants but also in the auxin resistant axr1-3 mutant. To test whether the overexpression of ABF3 or ABF4 affected ethylene or auxin sensitivity, we compared the effects of the ethylene precursor 1-aminocyclopropane-1-carboxylic acid (ACC) and indole-3-acetic acid (IAA) on the growth of 35S-ABF and wild type plants. […] However, leaves of 35S-ABF4 plants have a tendency to have epinastic curvature when grown on plates (FIG. 4A), which is generally attributed to ethylene action under stress conditions (Jackson, 1997). […] Thus, the result implies that auxin signaling pathway(s) might have been perturbed in 35S-ABF4 plants.

Experiment [3] deals with 35S-ABF4 transgenic plants (line A405). As to the kind of experiment: ABA dose-response of germination. The following applies: 0.5 μM ABA, fully emerged radicles counted after 3 days. Format: in vivo, Arabidopsis thaliana. The protocol: (§4) FIG. 2. ABA Sensitivity of 35S-ABF3 and 35S-ABF4 Plants. (A) Growth of transgenic plants on medium containing 0.5 μM ABA. Seeds were germinated and grown for 12 days. (B) Growth of transgenic plants on medium containing 0.25 μM ABA. Seeds were germinated on the medium for 3 days and representative plants are shown. (C) ABA dose-response of germination. Seeds, 6 months old after harvest and pre-chilled at 4° C. for 4 days, were germinated on media containing various concentrations of ABA, and seedlings with fully emerged radicles were counted after 3 days. Experiments were done in triplicates (n=50 each), and the bars show standard errors. (D) ABA dose-response of root growth. Seeds were germinated for 4 days on ABA-free medium and the seedlings (n=6) were transferred to media containing various concentrations of ABA. Root elongation was measured 5 days after the transfer. The experiments were performed more than four times, sometimes using different transgenic lines, and the results were consistent. The small bars represent standard errors. Transgenic lines A319 (ABF3) and A405 (ABF4) were used.
(§5) To see the stage-specificity of ABA response, ABA dose-response was examined during and after germination. […] Likewise, root growth of the 35S-ABF transgenic lines was hypersensitive to ABA (FIG. 2D). At 0.5 μM ABA, wild type root growth was 84% of its control rate, whereas those of 35S-ABF4 and 35S-ABF3 plants were 35% and 51% of their control rates, respectively. At 1 μM ABA, root growth of the 35S-ABF4 plants reduced to 6% and the 35S-ABF3 plants to 37%. […] Wild type plants grew at 62% of the control rate at the same ABA concentration.

The test system of experiment [4] is 35S-ABF3 transgenic plants (line A319). As to the kind of experiment: ABA dose-response of germination. The experiment is classed as in vivo, Arabidopsis thaliana. Particulars: 0.5 μM ABA, fully emerged radicles counted after 3 days. The protocol: as §4, §5
The subject of experiment [5] is wild type plants (Ler). As to the kind of experiment: ABA dose-response of germination. The experiment is classed as in vivo, Arabidopsis thaliana. The following applies: 0.5 μM ABA, fully emerged radicles counted after 3 days. As for the experimental part: as §4, §5
Experiment [6] has as its system 35S-ABF plants. The experiment in a line: Germination and growth on ABA-containing medium. Format: in vivo, Arabidopsis thaliana. The following applies: ABA 0.5 μM or above. The protocol: as §4
(§6) To test whether ABF3 or ABF4 overexpression affected ABA sensitivity, 35S-ABF3 and 35S-ABF4 transgenic plants were germinated and grown on media containing various concentrations of ABA. […]

In experiment [7] the test system is wild type plants. As to the kind of experiment: Germination and growth on ABA-containing medium. The experiment is classed as in vivo, Arabidopsis thaliana. The following applies: ABA 0.5 μM or above. As for the experimental part: as §4, §6
Experiment [8] has as its system 35S-ABF transgenic plants. The experiment in a line: ABA dose-response of root growth. The experiment is classed as in vivo, Arabidopsis thaliana. The following applies: ABA concentration above 5 μM. The protocol: as §4, §5
Experiment [9] deals with wild type plants (Ler). The experiment in a line: ABA dose-response of root growth. The experiment is classed as in vivo, Arabidopsis thaliana. As for the experimental part: as §4, §5
The test system of experiment [10] is 35S-ABF4 transgenic plants (line A405). The experiment in a line: ABA dose-response of root growth. The experiment is classed as in vivo. The following applies: Arabidopsis thaliana, 120 h, root elongation 5 days after transfer, read-out: root growth, % of control rate. As for the experimental part: as §4, §5
The subject of experiment [11] is 35S-ABF3 transgenic plants (line A319). The experiment in a line: ABA dose-response of root growth. The experiment is classed as in vivo. The following applies: Arabidopsis thaliana, 120 h, root elongation 5 days after transfer, read-out: root growth, % of control rate. The protocol: as §4, §5
Experiment [12] concerns wild type plants. Particulars: NaCl below 100 mM; wild type (also aba1, abi1, abi2 mutants). As for the experimental part: as §1, §2, §3

Regarding `OC[C@@H](O)[C@@H](O)[C@H](O)[C@H](O)CO` [mannitol], the growth inhibition entry in the experiment with 35S-ABF transgenic lines was “significantly but similarly”. Besides, the “response of germination/seedling growth” value in the experiment on 35S-ABF plants [1] (mannitol, same or twice the concentration (100 mM)) is “normal”.
Consider `O=C(O)Cc1c[nH]c2ccccc12` [IAA, indole-3-acetic acid], for which the “difference in growth response between 35S-ABF and wild type plants” value in experiment [2] is “did not see any differences”.
Same read-out and setting: with `NC1(C(=O)O)CC1` [ACC, 1-aminocyclopropane-1-carboxylic acid] the entry was “did not see any differences”.
As to `CC1=CC(=O)CC(C)(C)[C@@]1(O)/C=C/C(C)=C\C(=O)O` [ABA, abscisic acid], the figures for the germination efficiency in [3] and in experiment [4] were 28% and 8%, respectively. Moreover, the germination with wild type plants (Ler) [5] came out at 80%. For the same molecule, the “growth after radicle emergence” value in the experiment with 35S-ABF plants [6] was “completely arrested”; with wild type plants [7], “continued to grow and develop”. For the same molecule, the root growth entry in experiment [8] was “almost completely arrested”; with wild type plants (Ler) [9] (ABA concentration above 5 μM), “still continued to grow”. Besides, the activity at 0.5 µM came to 84% in the experiment on wild type plants (Ler) [9] (Arabidopsis thaliana, 120 h, 0.5 μM ABA, root elongation 5 days after transfer, read-out: root growth, % of control rate); 35% in experiment [10] (0.5 μM ABA); 51% in [11] (0.5 μM ABA). Further, the activity at 1 µM was determined as 62% in the experiment on wild type plants (Ler) [9] (Arabidopsis thaliana, 120 h, 1 μM ABA, root elongation 5 days after transfer, read-out: root growth, % of control rate); 6% in experiment [10] (1 μM ABA); 37% in experiment [11] (1 μM ABA).
Consider `[Cl-].[Na+]` [NaCl], for which the germination result in the experiment on wild type plants [12] is recorded as “not affected”. For the same molecule, the germination and growth result with 35S-ABF plants [1] (100 mM NaCl) was “significantly affected”.

Values taken from patent US20050244971A1, “Transgenic plants with enhanced stress tolerance” (KOREA KUMHO PETROCHEMICAL CO., LTD., priority 2002, published 2005).
